# Assay results: article PMC8397297 (ACS Chemical Neuroscience, 2021)
# Entries after “also recorded” stand apart in the source; their conditions may differ.
# Key:
# [1] = molecular target: T1, mGAT1 (Mus musculus, UniProt P31648); assay: [3H]GABA uptake assay in HEK-293 cells stably expressing mGAT1; assay type: cell-based; conditions: for IC50: [3H]GABA uptake, read-out: pIC50 ± SEM mGAT1 (converted)
# T1 construct: expressed in transfected cells; host or cells: HEK-293
# [2] = molecular target: T1, mGAT1; assay: competitive MS binding assay with NO711 as unlabeled marker (LC-ESI-MS/MS); conditions: for remaining NO711 binding mGAT1: in the presence of 100 μM inhibitor
# Procedure, shortened: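 Competitive MS binding with unlabeled NO711 as marker, quantified by LC–ESI-MS/MS. Compounds screened at 100 μM for inhibition of marker binding.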
# [3] = system: HepG2 cells; assay: HepG2 hepatoma cell-based hepatotoxicity assay (MTS); conditions: 72 h of incubation
# Procedure: To investigate the safety of compounds 2RS,4RS-39c, 50a, and 56a, a HepG2 hepatoma cell-based hepatotoxicity assay was used. Compounds were tested at six concentrations (0.1–100 μM).
# (§1) Hepatotoxicity and cytotoxicity were estimated according to previously described protocols[62] using the hepatoma HepG2 (ATCC HB-8065) and human embryonic kidney HEK-293 (ATCC CRL1573) cell lines, respectively. In brief, cells were seeded in 96-well plates at a density of 0.7 × 10^4 and cultured at 37 °C in an atmosphere containing 5% CO2. Next, the compounds were added and investigated in quadruplicate at concentrations ranging from 0.1 to 100 μM for 72 h. The antiproliferative drug DX was used as the reference. The CellTiter 96 AQueous nonradioactive cell proliferation assay (MTS) purchased from Promega (Madison, WI, USA) was used for the determination of cell viability. The absorbance at 492 nm was measured using an EnSpire microplate reader (PerkinElmer, Waltham, MA, USA).
# [4] = system: HEK-293 cells; assay: HEK-293 cytotoxicity assay (MTS); assay type: cell-based, human; conditions: for concentration with significant (p < 0.0001) decrease in HEK-293 cell viability: 72 h of incubation; for concentration of observed antiproliferative effects: summary of HepG2 and HEK-293 assays
# Procedure: Subsequently, a similar study was performed with the HEK-293 cell line.
# as §1
# [5] = system: oxaliplatin-treated mice; assay: oxaliplatin-induced peripheral neuropathy, tactile allodynia (von Frey test); assay type: in vivo, mouse
# Procedure: (§2) Before the in vivo tests, the test compounds were suspended in 1% Tween 80 (Baxter, Poland). The compounds were then administered intraperitoneally. […] The test compounds were administered only once daily on days 1 and 7 of oxaliplatin- or paclitaxel-induced neuropathy. In STZ-treated mice, test compounds were administered 21 days after STZ injection. Control mice used in oxaliplatin and paclitaxel NP models were injected with an appropriate amount of vehicle (0.9% saline). Oxaliplatin was purchased from Activate Scientific GmbH (Germany). Paclitaxel and STZ were purchased from Sigma-Aldrich (Poland).
# For pain studies, oxaliplatin was dissolved in 5% glucose solution (Polfa Kutno, Poland). The dose of oxaliplatin used to induce peripheral neuropathy (10 mg/kg, intraperitoneal injection) was chosen on the basis of previous research[63],[64] and available literature data.[65]
# (§3) The ability of the test compounds to attenuate tactile allodynia caused by oxaliplatin, paclitaxel, and STZ was assessed using the von Frey test. For this purpose, 3 h after oxaliplatin or paclitaxel and 21 days after STZ injection, the predrug paw withdrawal threshold was measured for each mouse. Then, the test compounds were administered, and 1 h later, the postdrug paw withdrawal threshold was collected for each animal. This part of the experiment aimed to establish the effect of treatment on early phase (acute) pain hypersensitivity induced by cytotoxic drugs. Additionally, in the oxaliplatin model and the paclitaxel model, to assess the effect of test compounds on late phase tactile allodynia, 7 days later, measurements of the predrug and postdrug paw withdrawal thresholds were made in a similar manner to the measurements performed during early phase neuropathy. At this stage of the experiment, there was no additional oxaliplatin/paclitaxel administration.
# (§4) An electronic von Frey unit (Bioseb, France) was used to assess the mechanical nociceptive threshold (tactile allodynia) in mice. This device has a single flexible filament that applies increasing force (from 0 to 10 g) against the plantar surface of the hind paw of each mouse. In the von Frey test, the paw withdrawal response of the animals automatically turns off the stimulus, and the mechanical pressure that evokes this response is recorded. On the day of the experiment, the mice were placed individually in test compartments with a wire mesh bottom and left there for 1 h of habituation. Subsequently, to obtain baseline values, each mouse was tested 3 times alternately in each hind paw. Then, the test compounds were administered, and 1 h later, 3 additional measurements were taken and averaged to obtain the mean postdrug values for each mouse.[69]
# [6] = system: paclitaxel-treated mice; assay: paclitaxel-induced peripheral neuropathy, tactile allodynia (von Frey test); assay type: in vivo, mouse
# Procedure: as §2
# (§5) Doses of both paclitaxel and STZ used for the induction of neuropathy were selected based on our previous research.[66],[67] To induce neuropathy, paclitaxel was used at a dose of 18 mg/kg. It was prepared by dissolving in ethanol (100% (v/v); Polskie Odczynniki Chemiczne, Gliwice, Poland) at 10% of the final desired volume and vortexed for 2 min. An equal volume of Cremophor EL (10% of the final volume) was then added, and the mixture was vortexed for the next 10 min. Prior to injection, ice-cold physiological saline (80% of the final volume) was added to make up a final volume and the solution was maintained on ice during dosing.[66] To induce type I diabetes, mice were intraperitoneally injected with STZ (a single injection of STZ, 200 mg/kg) dissolved in 0.1 N citrate buffer. Age-matched control mice received an equal volume of citrate buffer. Blood glucose level was measured 1 day before (referred to as “day 0”) and repeatedly 1, 2, and 3 weeks after STZ injection using a blood glucose monitoring system (Accu-Chek Active, Roche, France). Blood samples for measurement of glucose concentration were obtained from the tail vein of the mice. The animals were considered as diabetic when their blood glucose concentration exceeded 300 mg/dL,[68] and only these mice (diabetic mice) were used in subsequent pain tests.[67]
# as §3, §4
# [7] = system: paclitaxel-treated mice; assay: paclitaxel-induced peripheral neuropathy, heat nociceptive threshold (hot plate test); assay type: in vivo, mouse; conditions: for effect on latency to pain reaction (heat), hot plate test: day of paclitaxel administration (paclitaxel-induced hypoalgesia); for effect on thermal nociceptive threshold, hot plate test: seven days after paclitaxel administration, i.p.
# Procedure: as §2, §5
# Thermal (heat) nociceptive threshold was assessed in the hot plate test as previously described.[67] First, baseline (predrug) latencies to pain reaction were established for each mouse. Then, the mice were treated intraperitoneally with either the test compound or vehicle. Sixty minutes later the animals were placed on the hot plate apparatus again (hot/cold plate, Bioseb, France). This apparatus has an electrically heated surface and is supplied with a temperature-controller that maintains the temperature at 55 °C. The time until the animal licked its hind paws or jumped was recorded by means of a stop-watch. In this assay a cutoff time was established (60 s) to avoid tissue damage, and the mice not responding within 60 s were removed from the apparatus and assigned a score of 60 s.
# [8] = system: STZ-treated mice; assay: diabetic STZ-induced peripheral neuropathy, tactile allodynia (von Frey test); assay type: in vivo, mouse; conditions: 21 days after STZ, i.p., doses 10 and 30 mg/kg
# Procedure: as §2
# Doses of both paclitaxel and STZ used for the induction of neuropathy were selected based on our previous research.[66],[67] To induce neuropathy, paclitaxel was used at a dose of 18 mg/kg. […] Blood glucose level was measured 1 day before (referred to as “day 0”) and repeatedly 1, 2, and 3 weeks after STZ injection using a blood glucose monitoring system (Accu-Chek Active, Roche, France). […]
# The ability of the test compounds to attenuate tactile allodynia caused by oxaliplatin, paclitaxel, and STZ was assessed using the von Frey test. For this purpose, 3 h after oxaliplatin or paclitaxel and 21 days after STZ injection, the predrug paw withdrawal threshold was measured for each mouse. […]
# [9] = early (acute) phase of oxaliplatin-induced neuropathy, i.p., 50a and 56a at both doses (10 and 30 mg/kg)
# [10] = day 7 after paclitaxel injection, 30 mg/kg i.p., 30 mg/kg
# [11] = day 7 after paclitaxel injection, lower dose (10 mg/kg) i.p.
# [12] = day of paclitaxel administration, 10 and 30 mg/kg i.p.
Compound,IC50 [1],remaining NO711 binding mGAT1 [2],hepatotoxicity in HepG2 cells ([3]; concentrations up to 25 μM),concentration with significant (p < 0.0001) decrease in HEK-293 cell viability [4],concentration of observed antiproliferative effects [4],"effect on mechanical nociceptive threshold (tactile allodynia), von Frey test [5, 9]","effect on mechanical nociceptive threshold (tactile allodynia), von Frey test ([5]; late phase (7 days after oxaliplatin), 10 mg/kg i.p., 10 mg/kg)","effect on mechanical nociceptive threshold, von Frey test [6, 10]","effect on mechanical nociceptive threshold, von Frey test [6, 11]","effect on mechanical nociceptive threshold, von Frey test [6, 12]","effect on latency to pain reaction (heat), hot plate test ([7]; 10 mg/kg i.p.)","effect on latency to pain reaction (heat), hot plate test ([7]; 30 mg/kg i.p.)","effect on thermal nociceptive threshold, hot plate test [7]","effect on mechanical nociceptive threshold (tactile allodynia), von Frey test [8]","Ki ([2]; MS binding assay, read-out: pKi ± SEM mGAT1 (converted))","safety profile in HEK-293 cells ([4]; 72 h, compared with HepG2)",remaining [3H]GABA uptake mGAT1 ([1]; in the presence of 100 μM inhibitor),concentration with statistically significant (p < 0.0001) decrease in HepG2 cell viability ([3]; tested 0.1–100 μM)
"CN(CCC=C1c2ccccc2CCc2ccccc21)C(CO)C(=O)NCc1ccccc1 (stereo not shown) [Compound 56a, N-Benzyl-2-((3-(10,11-dihydro-5H-dibenzo[a,d][7]annulen-5-ylidene)propyl)(methyl)amino)-3-hydroxypropanamide]",21.4 µM,100 μM: 68%,did not induce significant hepatotoxicity,25 µM,25 µM,reduced tactile allodynia; also recorded: showed antiallodynic properties,showed antiallodynic properties in the acute and late phases,elevated mechanical nociceptive threshold; also recorded: able to reduce tactile allodynia,not effective,neither 50a nor 56a at doses 10 and 30 mg/kg was able to elevate the mechanical nociceptive threshold,reduced latency to pain reaction,reduced latency to pain reaction,did not reveal the effect of paclitaxel and compounds 50a and 56a on the thermal nociceptive threshold,effective only at the dose of 30 mg/kg,–,–,–,–
"CN(CCON=C(c1ccccc1)c1ccccc1)C(CCN)C(=O)NCc1ccccc1Cl (stereo not shown) [Compound 50a, 4-Amino-N-[(2-chlorophenyl)methyl]-2-[(2-{[(diphenylmethylidene)amino]oxy}ethyl)(methyl)amino]butanamide]",20 µM,–,–,–,1 µM,significantly elevated the pain threshold for mechanical stimulation; also recorded: showed antiallodynic properties,–,elevated mechanical nociceptive threshold; also recorded: able to reduce tactile allodynia,not effective,neither 50a nor 56a at doses 10 and 30 mg/kg was able to elevate the mechanical nociceptive threshold,–,reduced latency to pain reaction,did not reveal the effect of paclitaxel and compounds 50a and 56a on the thermal nociceptive threshold,effective only at the dose of 30 mg/kg,33.1 µM,comparable safety profile in HEK-293 and HepG2 cells,–,–
"Cc1ccc(CNC(=O)[C@@H](C[C@@H](C)O)N(C)CCC=C2c3ccccc3CCc3ccccc32)cc1 (relative stereo) [Compound 2RS,4RS-39c, 2-((3-(10,11-Dihydro-5H-dibenzo[a,d][7]annulen-5-ylidene)propyl)(methyl)amino)-4-hydroxy-N-(4-methylbenzyl)pentanamide]",–,100 μM: 69%,–,25 µM,25 µM,not effective,–,–,–,–,–,–,–,–,–,–,100 μM: 52%,25 µM
